# Measurements from ChEMBL document CHEMBL3244033, “Potential antitumor agents. 21. Dialkanolamine dialkanesulfonic esters” (J Med Chem, 1977).
# Tests used:
# L1210 = test: Antileukemic activity against mouse L1210 cells allografted in ip dosed C3H/HeJ female X DBA2/J male F1 hybrid mouse assessed as maximal increase in host life span at LD10 administered as single dose 24 hrs after tumor implantation; format: functional
# Mus musculus = test: Acute toxicity in ip dosed C3H/HeJ female X DBA2/J male F1 hybrid mouse allografted with mouse L1210 cells assessed as mortality administered as single dose; format: organism-based; settings: in vivo
# [1] = Lipophilic-hydrophilic balance, Rm of the compound using mixture of glycerol, i-BuOH and 1-pentanol plus methanesulfonic acid as solvent system by acidic reversed-phase chromatography; format: physicochemical
# [2] = Dissociation constant, pKa of the compound; format: physicochemical
SMILES,Activity (L1210) [%],LD10 (Mus musculus) [mg/kg],Rm [1],pKa [2]
CS(=O)(=O)OCCCNCCCOS(C)(=O)=O.Cl,84,170,-0.88,8.77
CS(=O)(=O)OCCNCCOS(C)(=O)=O.Cl,>25,25,-1.13,
CCS(=O)(=O)OCCNCCOS(=O)(=O)CC.Cl,26,35,-0.64,
CCCS(=O)(=O)OCCNCCOS(=O)(=O)CCC.Cl,57,210,-0.1,
CCCCS(=O)(=O)OCCNCCOS(=O)(=O)CCCC.Cl,105,750,0.37,
CCCCCS(=O)(=O)OCCNCCOS(=O)(=O)CCCCC.Cl,78,520,0.76,
CCS(=O)(=O)OCCCNCCCOS(=O)(=O)CC.Cl,100,410,-0.47,
CCCS(=O)(=O)OCCCNCCCOS(=O)(=O)CCC.Cl,75,285,0.09,
CCCCS(=O)(=O)OCCCNCCCOS(=O)(=O)CCCC.Cl,,,0.45,
CS(=O)(=O)OCCCCCCNCCOS(C)(=O)=O.Cl,91,185,-0.71,
CCS(=O)(=O)OCCCCCCNCCOS(=O)(=O)CC.Cl,83,285,-0.19,
CCCS(=O)(=O)OCCCCCCNCCOS(=O)(=O)CCC.Cl,59,225,0.27,
CCCCS(=O)(=O)OCCNCCCCCCOS(=O)(=O)CCC.Cl,35,200,0.51,
CS(=O)(=O)OCCCCCCNCCCOS(C)(=O)=O.Cl,107,33,-0.65,
CCS(=O)(=O)OCCCCCCNCCCOS(=O)(=O)CC.Cl,78,61,-0.05,
CCCS(=O)(=O)OCCCCCCNCCCOS(=O)(=O)CCC.Cl,45,137,0.32,
